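Assay format: 96-well plates, 48-hour exposure. TGI: concentration producing complete growth inhibition.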
Columns and labels:
Test in all cases: DTP human tumour cell line panel, 48 h
U251 CNS = test system: U251 CNS
HS 578T breast = test system: HS 578T breast
MALME-3M melanoma = test system: MALME-3M melanoma
K-562 leukemia = test system: K-562 leukemia
SK-MEL-28 melanoma = test system: SK-MEL-28 melanoma
SF-539 CNS = test system: SF-539 CNS
NCI/ADR-RES ovarian = test system: NCI/ADR-RES ovarian
HOP-62 NSCLC = test system: HOP-62 NSCLC
A549 NSCLC = test system: A549 NSCLC
SK-OV-3 ovarian = test system: SK-OV-3 ovarian
SF-268 CNS = test system: SF-268 CNS
PC-3 prostate = test system: PC-3 prostate
HCT-116 colon = test system: HCT-116 colon
NCI-H522 lung = test system: NCI-H522 lung
SF-295 CNS = test system: SF-295 CNS
OVCAR-3 ovarian = test system: OVCAR-3 ovarian
NCI-H226 lung = test system: NCI-H226 lung
COLO 205 colon = test system: COLO 205 colon
KM12 colon = test system: KM12 colon

| Compound | TGI (U251 CNS) [µM] | TGI (HS 578T breast) [µM] | TGI (MALME-3M melanoma) [µM] | TGI (K-562 leukemia) [µM] | TGI (SK-MEL-28 melanoma) [µM] | TGI (SF-539 CNS) [µM] | TGI (NCI/ADR-RES ovarian) [µM] | TGI (HOP-62 NSCLC) [µM] | TGI (A549 NSCLC) [µM] | TGI (SK-OV-3 ovarian) [µM] | TGI (SF-268 CNS) [µM] | TGI (PC-3 prostate) [µM] | TGI (HCT-116 colon) [µM] | TGI (NCI-H522 lung) [µM] | TGI (SF-295 CNS) [µM] | TGI (OVCAR-3 ovarian) [µM] | TGI (NCI-H226 lung) [µM] | TGI (COLO 205 colon) [µM] | TGI (KM12 colon) [µM] |
| --- | --- | --- | --- | --- | --- | --- | --- | --- | --- | --- | --- | --- | --- | --- | --- | --- | --- | --- | --- |
| O=C1c2cc3c(cc2CC12Cc1cc4c(cc1C2=O)CCC4)CCCC3 (stereo not drawn) | > 100 | > 100 | > 100 | > 100 | > 100 | > 100 | > 100 | > 100 | > 100 | > 100 | > 100 | > 100 | > 100 | > 100 | > 100 | > 100 |  |  |  |
| CSC1=C(SC)SC(=C2SC3=C(SC(=C4SCCS4)S3)S2)S1 | > 100 | > 100 | > 100 |  | > 100 | > 100 | > 100 | > 100 | > 100 | > 100 | > 100 | > 100 | > 100 | > 100 | > 100 | > 100 | > 100 | > 100 | > 100 |
| CC(C)CC1[C@@H](OCc2ccccc2)COS(=O)N1Cc1ccccc1 (stereo partly drawn) | > 100 | 80 | 72.9 | > 100 | > 100 |  | > 100 | > 100 | > 100 | > 100 | > 100 | > 100 | > 100 |  | > 100 | > 100 | > 100 | > 100 | 96.2 |
| CCN(CC)CCn1nc(N)c2nc3cc(Cl)ccc3nc21 | > 100 | > 100 | > 100 | > 100 | > 100 |  | > 100 | > 100 | > 100 | > 100 | > 100 | > 100 | > 100 | > 100 | > 100 |  | > 100 | > 100 | > 100 |
| N#CC1Nc2ccccc2[C@@H](O)C1O (stereo partly drawn) | > 100 | > 100 | > 100 | > 100 | > 100 | > 100 | > 100 | > 100 | > 100 | > 100 | > 100 | > 100 | > 100 |  | > 100 | > 100 |  | > 100 | > 100 |
| O=C(O)c1ccc(NNc2cc(=O)[nH]c(=O)[nH]2)cc1 | > 100 | > 100 | > 100 | > 100 | > 100 | > 100 | > 100 | > 100 | > 100 | > 100 | > 100 | 83.7 | > 100 |  | > 100 | > 100 | > 100 | > 100 | > 100 |
| CCOC(=O)C1=C(Nc2cccc(OC)c2)OCC1=O | > 100 | > 100 |  | > 100 | > 100 | > 100 | > 100 | > 100 |  | > 100 | > 100 | > 100 | > 100 |  | > 100 |  | > 100 | > 100 | > 100 |
| CC1(C)c2ccccc2C(=O)C12CCC(=O)CC2 | > 100 | > 100 | > 100 | > 100 | > 100 | > 100 | > 100 | > 100 | > 100 | > 100 | > 100 | > 100 | > 100 | > 100 | > 100 |  | > 100 | > 100 | > 100 |
| COc1ccc2c(c1)CCc1c-2[nH]c2ccc(OC)cc12 | > 100 | > 100 | > 100 | > 100 | > 100 |  | > 100 | > 100 | > 100 | > 100 | > 100 | > 100 | > 100 | > 100 | > 100 | > 100 | > 100 | > 100 | > 100 |
| CC(=O)N(C(=O)CC(=O)N/N=C\c1ccc(Br)c(N(CCC#N)CCC#N)c1)c1ccc(Cl)cc1 | > 100 | > 100 | > 100 | > 100 | > 100 | > 100 | > 100 | > 100 | > 100 | > 100 | > 100 | > 100 | > 100 |  | > 100 | > 100 | > 100 | > 100 | > 100 |
| C=CCN1C[C@H](C)N([C@H](c2ccc(C(=O)N(CC)CCO)cc2)c2cccc(OC)c2)C[C@H]1C | > 100 | > 100 | > 100 |  | > 100 | > 100 | > 100 | > 100 | > 100 | > 100 | > 100 | > 100 | > 100 | > 100 | > 100 | 54.6 | > 100 | > 100 | > 100 |
| CCC1OC2C(CC=C(C)C)=C3OC(C)(O)C(C)(CC)C(OC(=O)c4ccccc4)C3=C3OC(=O)C=C1C32 (stereo not drawn) | > 100 | > 100 | > 100 | > 100 | > 100 | 54.1 | > 100 | > 100 | > 100 | > 100 | > 100 | > 100 | > 100 | 47.6 | > 100 | > 100 |  | 39.8 | > 100 |
| COc1ccc2c(c1)CN1C(=N2)CSC1c1cc([N+](=O)[O-])ccc1Cl (stereo not drawn) | > 100 | > 100 | > 100 | > 100 |  | 98.2 | > 100 | > 100 | > 100 | > 100 | > 100 | > 100 | > 100 | > 100 | > 100 |  | > 100 | 92.4 | > 100 |
| CCN1c2nc3ccccc3nc2N(CC)c2nc3ccccc3nc21 | > 100 | > 100 | > 100 | > 100 | > 100 | 94 | > 100 |  | > 100 | > 100 | > 100 | > 100 | > 100 | > 100 | > 100 | > 100 | > 100 | > 100 | > 100 |
